Test [1] concerns iPSC-derived excitatory cortical neurons (NGN2) with loss of function knockout. Description: Optopatch functional phenotype reversal in knockout (KO) disease-model neurons versus wildtype control. Type of test: cell-based, human. The settings on record: for cell behavior projected onto phenotype/side effect space: KO cells, 8 concentrations from 0.28 to 600 μM, two replicates; for reversal of disease-model functional phenotype (radar plot of action potential features): KO disease-model cells stimulated in presence of compound, normalized to control cells. Here is the method:
In this example, iPSC-derived excitatory cortical neurons (NGN2) were grown for 30 days in a culture. The neurons expressed Optopatch proteins as described in Example 1. Two sets of neurons were grown. The first was a wildtype control line.
The cells were stimulated using blue light as described in Example 1 and their action potentials recorded as voltage traces. Recordings were made of the control cells and disease-model cells when stimulated in the absence of any test compound. Recordings were also made of the disease-model cells when stimulated in the presence of the promiscuous potassium channel blocker 4-AP and the promiscuous sodium channel blocker lamotrigine.
FIG. 23 provides radar plots representing functional phenotypes generated by a machine learning system using action potential features extracted from the recorded action potentials when the cells were stimulated by blue light. The values for the features are normalized to the control cell recordings. […] The differences in the recorded traces, select features of which are provided on the radar plots, show the functional phenotype of the disease-model.
FIG. 24 is a diagram illustrating phenotype reversal and “side effects” described by mapping extracted action potential features on the ˜300-dimensional space of recorded parameters, only two of which are shown. Extracted features for the control cell (WT) wells (green) are clustered as are those for the KO cells (red). The vector between these populations represents the phenotype (red). Drug effects (blue) are deconstructed into components along (phenotype reversal) and orthogonal to (side effects) the phenotype vector. An ideal drug would undo the effects of the mutation and move the well from the KO cluster to the control cell cluster.
FIG. 25 is a plot showing many wells projected onto the phenotype/side effect space. WT and KO wells are well separated along the phenotype direction. Application of the two compounds (8 concentrations from 0.28 to 600 μM) from FIG. 25 have increasing effects on KO cell behavior as the concentration increases. […] The connected drug points are in order of increasing concentration, and the two lines are experimental replicates on two consecutive weeks of experiment.

Test [2] concerns E18 rat hippocampal neurons. The test can be described thus: Optopatch functional phenotypes of compounds in cultured neurons. Type of test: cell-based. The settings on record: normalized to control vehicle, 14 days culture. Here is the method: E18 rat hippocampal neurons were cultured for 14 days and caused to express Optopatch proteins as described in Example 1. The cells were stimulated in the presence of XE-991 (a Kv7.x blocker), ML-213 (a Kv7.x opener), a-Dendrotoxin (a Kv1.x blocker), OXO-M (a muscarinic agonist), 4AP (a promiscuous Kv blocker), Isradipine (a Cav1.x blocker), or a control vehicle. FIG. 26 provides radar plots representing generated functional phenotypes indicative of the drug-induced changes in neuronal spiking behavior along many dimensions. The action potential feature values were normalized to those for the cells simulated in the presence of the control vehicle. As shown in the radar plots, each compound provided a discernable and unique functional phenotype. […] FIG. 27 provides concentration response curves for the cells in the presence of varied concentrations of the compounds. Each symbol represents >100 cells in one well and all measurements were obtained in a single day. Thus, the present systems and methods can not only elucidate therapeutic responses of various compounds, but also show concentration-dependent responses. Moreover, as the measurements were taken in a single day, the presently disclosed systems and methods enable fast, high-throughput drug screening.

Test [3] concerns E18 rat hippocampal neurons. The test can be described thus: Optopatch 96-well plate firing assay, alternating columns compound/vehicle. It counts as cell-based. Particulars: ML-213 at 1 μM versus vehicle wells. Here is the method: E18 rat hippocampal neurons were cultured for 14 days and caused to express Optopatch proteins as described in Example 1. The cells were placed in wells of a 96-well plate. ML-213 at 1 μM was added to alternating columns of the plate and a control vehicle added to the remaining columns. The cells in all wells were stimulated and their action potentials recorded using a microscope as described in Example 1.
FIG. 30 provides the average firing rate during the blue light stimulus ramp for each well.
FIG. 32 provides a plot of the average number of spikes recorded for individual cells in each well during the blue light stimulus ramp.

In test [4] the test system is hiPSC-derived motor neurons. Description: Optopatch optical stimulation and voltage recording of hiPSC-derived motor neurons before and after compound addition. Type of test: cell-based, human. An excerpt: Human induced pluripotent stem cells (hiPSC) were differentiated into hiPSC-derived motor neurons. The cells expressed an optogenetic proteins from the Optopatch toolkit (optical stimulation plus optical voltage reporting, e.g., CheRiff & QuasAr), which allows simultaneous optical stimulation and recording of neuronal action potentials.
The channelrhodopsin CheRiff enables action potential stimulation with blue light and the voltage-sensitive fluorescent protein QuasAr enables high-speed electrical recordings with red light. A microscope, as disclosed herein, obtained simultaneous voltage recordings from >100 individual neurons over a large (0.5×4 mm) field of view (FOV) with 1 ms temporal resolution and high signal-to-noise ratio (SNR). A digital micromirror device (DMD) in the microscope projected a fully reconfigurable optical pattern to sequentially stimulate cells while recording from many post-synaptic partners. […]
In every trace the spikes were detected and the key spike shape and timing parameters were computed. […]
Pixels in the recording that captured fluorescence from the reporters of membrane potential in each neuron co-varied in time following that cell's unique firing pattern. […] Each FOV was recorded twice, before and after addition of potassium channel opener ML-213. […]

SMILES strings stand for the structures.

As to `Nc1ccncc1` [4-AP], in test [1], the “cell behavior projected onto phenotype/side effect space” value was “moves cell behavior toward and beyond WT behavior”; the “reversal of disease-model functional phenotype (radar plot of action potential features)” value was “substantially reversed the phenotype”.

As to `Cc1cc(C)c(NC(=O)C2CC3CCC2C3)c(C)c1` (stereo not drawn) [ML-213], in test [2], the “drug-induced changes in neuronal spiking behavior (functional phenotype)” value is on record as “drove cellular response, as expected”. Also, in test [3], the “average firing rate during the blue light stimulus ramp” value is “dramatically reduces firing rate”. The neuronal excitability entry in test [4] (1 μM ML-213, same neurons before and after addition, blue light stimulus) is given as “clear reduction in neuronal excitability”. The “resting potential and action potential firing” value in test [4] (hiPSC-derived motor neurons) is “lowers resting potential and suppresses action potential firing”.

For the compound `O=C1c2ccccc2C(Cc2ccncc2)(Cc2ccncc2)c2ccccc21` [XE-991], the “drug-induced changes in neuronal spiking behavior (functional phenotype)” value in test [2] is listed as “drove cellular response, as expected”.

For `Nc1nnc(-c2cccc(Cl)c2Cl)c(N)n1` [lamotrigine], in test [1], the “cell behavior projected onto phenotype/side effect space” value is “moves behavior away from both WT and KO”; the “reversal of disease-model functional phenotype (radar plot of action potential features)” value is “perturbed behavior but did not reverse the phenotype”.

Source of the values: patent publication US20220358646A1, “CELL ACTIVITY MACHINE LEARNING” (Q-STATE BIOSCIENCES, INC., priority 2021, published 2022).
